Calls of active or inactive are those of the source. Bounds are passed on as bounds.

Drawing on ChEMBL document CHEMBL1201862, “PubChem BioAssay data set” (2004), this text covers IC50, EC50 and AC50 for eight compounds.

Assay [1] concerns the target T1, Mannose-6-phosphate isomerase (Homo sapiens, UniProt P34949).
T1 sequence (P34949 whole entry): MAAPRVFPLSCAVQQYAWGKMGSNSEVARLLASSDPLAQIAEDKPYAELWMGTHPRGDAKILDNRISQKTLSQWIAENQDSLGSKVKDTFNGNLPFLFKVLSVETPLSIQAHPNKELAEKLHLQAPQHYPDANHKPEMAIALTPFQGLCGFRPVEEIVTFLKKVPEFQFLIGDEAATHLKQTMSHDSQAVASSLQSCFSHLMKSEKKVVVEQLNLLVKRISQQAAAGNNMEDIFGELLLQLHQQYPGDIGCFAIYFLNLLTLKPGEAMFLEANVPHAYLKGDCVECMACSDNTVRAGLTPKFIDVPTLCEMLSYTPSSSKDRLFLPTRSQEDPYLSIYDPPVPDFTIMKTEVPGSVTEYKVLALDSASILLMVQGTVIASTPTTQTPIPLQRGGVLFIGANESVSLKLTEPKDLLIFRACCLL
The assay is described as follows: MPI enzyme activity inhibition – biochemical, fluorescence intensity, coupled assay, primary screen (AID 1209).

Assay [2] concerns the target T1, Mannose-6-phosphate isomerase. As to the kind of experiment: MPI inhibition at elevated mannose 6-phosphate – biochemical, fluorescence intensity, high mannose 6-phosphate, primary screen (AID 1220).
Assay [3] in a line: A cytotoxicity screen of small molecule inhibitors of the PhoP region in Salmonella typhi identified in the primary screen. [Related pubchem assays: 1850, 1864, 1985 ]. The format is functional.
Assay [4] is described as follows: Luminescence Cell-Based Dose Confirmation HTS to Identify Activators of 5'UTR Stem-Loop Driven Alpha-Synuclein mRNA Translation in H4 Neuroglioblastoma Cells. [Related pubchem assays: 1829 (Project Summary), 1814 (Primary HTS)]. The format is functional.
Assay [5] relates to H4. The assay is described as follows: Luminescence Cell-Based Dose Response HTS to Identify Activators of 5'UTR Stem-Loop Driven Prion Protein mRNA Translation in H4 Neuroglioblastoma Cells. [Related pubchem assays: 1829 (Project Summary), 1814 (Primary HTS)]. The format is functional. As to conditions: Homo sapiens.
Assay [6] in a line: Luminescence Cell-Based Dose Response HTS to Identify Activators of Luciferase Translation or Activity in H4 […] Cells. [Related pubchem assays: 1829 (Project Summary), 1814 (Primary HTS)]. The format is functional.
A short description of assay [7]: M. tuberculosis H37Rv growth inhibitors, H37Rv strain (AID 1626). The format is functional.
The target of assay [8] is FAD-linked sulfhydryl oxidase ALR (Homo sapiens, UniProt P55789). The assay is described as follows: ALR-catalysed DTT oxidation blockers – biochemical, H2O2 detection, luminescence, cherry-pick, dose response (AID 493248).
Sequence of FAD-linked sulfhydryl oxidase ALR (P55789 whole entry): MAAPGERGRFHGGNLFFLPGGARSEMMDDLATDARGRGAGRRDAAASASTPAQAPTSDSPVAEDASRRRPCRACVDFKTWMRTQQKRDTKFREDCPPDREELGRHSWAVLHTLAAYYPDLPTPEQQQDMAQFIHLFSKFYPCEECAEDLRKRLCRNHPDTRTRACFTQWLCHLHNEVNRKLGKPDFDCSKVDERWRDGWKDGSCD
Assay [9] can be described thus: Luminescence Cell-Based Dose Retest to Confirm Inhibitors of Cancer Stem Cells. [Related pubchem assays (depositor defined):AID2717, AID2721]. As to conditions: Homo sapiens. The format is functional.
Assay [10] is described as follows: Luminescence Cell-Based Dose Response to Identify Activators of Luciferase Translation or Activity in H4-C Neuroglioblastoma Cells. [Related pubchem assays: 1829 (Project Summary), 1814 (Primary HTS)]. The format is functional.
The nature of assay [11]: Luminescence Cell-Based Dose Response to Identify Activators of 5'UTR Stem-Loop Driven Prion Protein mRNA Translation in H4-C Neuroglioblastoma Cells. [Related pubchem assays: 1829 (Project Summary), 1814 (Primary HTS)]. The format is functional.
Assay [12] can be described thus: Luminescence Cell-Based Dose Confirmation to Identify Activators of 5'UTR Stem-Loop Driven Alpha-Synuclein mRNA Translation in H4 Neuroglioblastoma Cells. [Related pubchem assays: 1829 (Project Summary), 1814 (Primary HTS)]. The format is functional.
Assay [13] concerns the target T2, Caspase-3 (Homo sapiens, UniProt P42574).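 Note: Dose-response selectivity test against caspase-3 for candidate inhibitors of sentrin-specific proteases (SENPs).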
T2 sequence (P42574 whole entry): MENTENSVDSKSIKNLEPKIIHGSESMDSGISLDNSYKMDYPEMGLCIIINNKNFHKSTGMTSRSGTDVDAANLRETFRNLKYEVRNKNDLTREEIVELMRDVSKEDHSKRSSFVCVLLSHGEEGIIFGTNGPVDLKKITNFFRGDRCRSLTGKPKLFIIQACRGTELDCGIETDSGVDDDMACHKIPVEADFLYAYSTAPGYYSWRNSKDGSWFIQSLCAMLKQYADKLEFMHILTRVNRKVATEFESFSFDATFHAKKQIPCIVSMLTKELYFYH
The format is functional.

In assay [14] the target is T3, Sentrin-specific protease 7 (Homo sapiens, UniProt Q9BQF6).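 Note: Luminescence-based dose-response confirmation of ultra-high-throughput screening hits, measuring inhibition of SENP7.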
T3 sequence (Q9BQF6 whole entry): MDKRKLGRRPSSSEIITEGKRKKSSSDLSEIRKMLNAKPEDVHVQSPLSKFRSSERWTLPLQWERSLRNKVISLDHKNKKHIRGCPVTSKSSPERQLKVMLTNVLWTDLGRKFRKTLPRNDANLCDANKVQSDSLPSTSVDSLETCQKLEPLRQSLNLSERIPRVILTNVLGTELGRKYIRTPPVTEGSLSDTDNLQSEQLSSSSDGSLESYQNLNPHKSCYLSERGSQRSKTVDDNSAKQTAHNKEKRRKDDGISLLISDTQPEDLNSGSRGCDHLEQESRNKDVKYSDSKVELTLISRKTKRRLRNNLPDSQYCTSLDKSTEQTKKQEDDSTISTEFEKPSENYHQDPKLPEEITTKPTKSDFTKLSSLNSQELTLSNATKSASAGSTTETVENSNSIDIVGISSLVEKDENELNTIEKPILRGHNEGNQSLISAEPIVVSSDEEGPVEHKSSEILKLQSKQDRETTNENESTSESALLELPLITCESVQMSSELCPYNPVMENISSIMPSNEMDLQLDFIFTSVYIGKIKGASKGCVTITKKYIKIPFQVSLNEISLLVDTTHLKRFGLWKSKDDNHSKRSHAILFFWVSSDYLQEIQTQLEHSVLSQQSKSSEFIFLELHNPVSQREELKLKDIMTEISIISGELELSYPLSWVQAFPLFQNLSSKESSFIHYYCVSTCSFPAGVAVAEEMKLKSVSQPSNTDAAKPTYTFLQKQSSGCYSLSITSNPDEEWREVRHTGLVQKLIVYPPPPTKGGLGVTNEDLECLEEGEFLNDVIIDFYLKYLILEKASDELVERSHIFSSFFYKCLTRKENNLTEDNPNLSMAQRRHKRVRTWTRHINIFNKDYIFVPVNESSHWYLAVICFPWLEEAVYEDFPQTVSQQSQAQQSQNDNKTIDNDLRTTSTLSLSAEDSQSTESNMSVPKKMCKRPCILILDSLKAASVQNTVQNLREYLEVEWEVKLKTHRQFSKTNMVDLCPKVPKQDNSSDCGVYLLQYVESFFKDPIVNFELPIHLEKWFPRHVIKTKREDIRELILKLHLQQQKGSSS
The format is functional.

The target in assay [15] is T4, Sentrin-specific protease 6 (Homo sapiens, UniProt Q9GZR1).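 Note: Luminescence-based dose-response confirmatory assay of SENP6 inhibition, following up an ultra-high-throughput screen.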
T4 sequence (Q9GZR1 whole entry): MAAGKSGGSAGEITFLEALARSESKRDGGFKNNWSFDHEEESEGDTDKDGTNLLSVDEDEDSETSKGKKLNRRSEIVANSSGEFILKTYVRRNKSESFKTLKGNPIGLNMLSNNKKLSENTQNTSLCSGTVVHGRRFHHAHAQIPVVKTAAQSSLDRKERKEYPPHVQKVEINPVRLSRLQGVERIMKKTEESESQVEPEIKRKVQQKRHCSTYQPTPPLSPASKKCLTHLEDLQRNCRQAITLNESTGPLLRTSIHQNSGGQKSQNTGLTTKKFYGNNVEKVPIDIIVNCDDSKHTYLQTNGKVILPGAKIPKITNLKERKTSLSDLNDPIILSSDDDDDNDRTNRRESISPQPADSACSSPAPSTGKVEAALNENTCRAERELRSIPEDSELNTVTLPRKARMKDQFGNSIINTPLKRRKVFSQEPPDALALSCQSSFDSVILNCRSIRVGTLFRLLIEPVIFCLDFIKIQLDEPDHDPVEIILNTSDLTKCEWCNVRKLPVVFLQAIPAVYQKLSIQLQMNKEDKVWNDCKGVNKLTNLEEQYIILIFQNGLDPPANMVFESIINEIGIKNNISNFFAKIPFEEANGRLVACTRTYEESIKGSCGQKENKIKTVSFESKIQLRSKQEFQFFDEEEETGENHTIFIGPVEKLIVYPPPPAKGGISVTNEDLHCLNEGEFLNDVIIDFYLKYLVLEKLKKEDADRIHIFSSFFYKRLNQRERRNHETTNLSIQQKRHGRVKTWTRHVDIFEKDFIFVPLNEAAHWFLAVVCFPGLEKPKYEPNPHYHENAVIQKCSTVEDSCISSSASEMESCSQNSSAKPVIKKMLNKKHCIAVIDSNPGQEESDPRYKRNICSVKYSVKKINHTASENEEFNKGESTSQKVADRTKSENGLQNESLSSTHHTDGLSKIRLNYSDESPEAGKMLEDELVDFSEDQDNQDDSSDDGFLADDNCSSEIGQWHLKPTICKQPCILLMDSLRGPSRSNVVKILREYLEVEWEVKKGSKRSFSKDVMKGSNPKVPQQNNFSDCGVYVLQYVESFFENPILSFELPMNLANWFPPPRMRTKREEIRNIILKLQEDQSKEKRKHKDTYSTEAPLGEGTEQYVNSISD
The format is functional.

For assay [16], the target named is T5, Sentrin-specific protease 8 (Homo sapiens, UniProt Q96LD8).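 Note: luminescence read-out of SENP8 inhibition, dose-response confirmation following an ultra-high-throughput screen.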
T5 sequence (Q96LD8 whole entry): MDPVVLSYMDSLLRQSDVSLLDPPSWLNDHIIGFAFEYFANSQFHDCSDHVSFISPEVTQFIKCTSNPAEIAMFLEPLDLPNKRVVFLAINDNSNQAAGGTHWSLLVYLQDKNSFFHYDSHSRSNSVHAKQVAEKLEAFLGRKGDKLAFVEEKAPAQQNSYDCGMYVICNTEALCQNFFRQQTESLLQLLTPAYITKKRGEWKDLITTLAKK
The format is functional.

As for `CC(C)CCSc1cc(NCCO)c([N+](=O)[O-])c2nonc12`, the half-maximal inhibitory concentration (IC50) in assay [1] and in assay [2] was > 50 µM (not active) each time.

Turning to `C=CCSc1nnc(NC(=O)CSc2nc3ccccc3o2)s1`, the EC50 in assay [3] was > 50 µM (active).

`c1ccc(CSCc2cn3ccsc3n2)cc1`: the IC50 in assay [1] and in assay [2] was > 50 µM (not active) in each case. Also, the concentration for a half-maximal effect (EC50) was 0.562 µM (active) in [4], 7.85 µM (active) in assay [5] and 40.7 µM (active) in assay [6].

Regarding `COc1ccc(NC2=CC(c3ccc(OC)cc3)N(c3ccc(OC)cc3)C2=O)cc1` (centres undefined), the half-maximal inhibitory concentration (IC50) in assay [7] is > 100 µM (active).

On to `CCCCC(=O)Nc1ccc2c(c1)oc1ccccc12`, for which the IC50 in assay [7] is > 100 µM (active).

For the compound `O=C(NCc1ccco1)c1ccc2c(c1)N(Cc1ccccc1)CCS2`, the EC50 in assay [3] was > 50 µM (active). The AC50 in [8] is 81.2 µM (active); in assay [9], 11.3 µM (active).

Turning to `CCOC(=O)c1ccc(NC(C)=C2C(=O)NC(=O)NC2=O)cc1`, the half-maximal inhibitory concentration (IC50) in assay [7] was > 100 µM (active).

For `O=C1c2ccccc2C(=O)N1CCSc1ccccc1`, the EC50 in assay [10] was 0.42 µM (active); in assay [11], 1.41 µM (active); in assay [12], 0.279 µM (active); in assay [4] it was 21.9 µM (active); in [5] it was < 0.1 µM (active); in [6], 0.18 µM (active). For the same compound, the concentration for half-maximal inhibition (IC50) in assay [13] was 14.5 µM (active); in [14], 9.56 µM (active); in assay [15] it was 30.4 µM (active); in assay [16], 35 µM (active).

One may read the IC50 as the point on the concentration scale where inhibition reaches its midpoint. Usually EC50 stands for the midpoint of the concentration-response curve. One may read the AC50 as the midpoint of the concentration-response curve, whichever way the signal moves.
